Laboratory results as given in publication PMC9151520 (Archives of Toxicology, 2022).
pEC50: −log10 of the molar value. Where a name gives a salt, the structure may show the parent alone. Read-outs that look alike come from different tables or passages of the source.

Legend:
[1] = test system: p53 signaling (p53RE-bla HCT-116 cells); assay: cells; format: cell-based
[2] = test system: p53 signaling (p53RE-bla HCT-116 cells); conditions: for pEC50: read-out: p53 activation EC50
[3] = test system: p53 signaling (p53RE-bla HCT-116 cells); assay: cells; conditions: Homo sapiens
[4] = test system: p53 signaling (p53RE-bla HCT-116 cells)
[5] = test system: p53 signaling (p53RE-bla HCT-116 cells); assay: cells; format: cell-based; conditions: Homo sapiens; for pEC50: HCT-116, 0.5 h
[6] = test system: p53 signaling (p53RE-bla HCT-116 cells); assay: cells; format: cell-based; conditions: for pEC50: Homo sapiens, HCT-116
[7] = test system: p53 signaling (p53RE-bla HCT-116 cells); assay: cells; conditions: Homo sapiens; for pEC50: HCT-116; for Emax: HCT-116, read-out: efficacy
[8] = Homo sapiens, HCT-116, read-out: EC50, p53 activation, cherry pick confirmation
[9] = Homo sapiens, HCT-116, read-out: EC50, p53 activation, primary screening
[10] = Homo sapiens, HCT-116, read-out: Efficacy, p53 activation, cherry pick confirmation
[11] = Homo sapiens, HCT-116, read-out: Efficacy, p53 activation, primary screening
[12] = HCT-116, read-out: EC50, p53 activation, primary screening
[13] = HCT-116, read-out: Efficacy, p53 activation, primary screening
[14] = HCT-116, read-out: p53 activation EC50, HLM
[15] = Homo sapiens, HCT-116, read-out: p53 activation efficacy
[16] = HCT-116, read-out: p53 activation EC50
[17] = HCT-116, read-out: p53 activation efficacy

SMILES	p53 activation EC50, No MS [1]	p53 activation Efficacy, No MS [1]	Viability EC50, HLM (p53RE-bla HCT-116 cells)	Viability EC50, No MS (p53RE-bla HCT-116 cells)	Viability EC50, RLM (p53RE-bla HCT-116 cells)	Viability Efficacy, HLM (p53RE-bla HCT-116 cells)	Viability Efficacy, No MS (p53RE-bla HCT-116 cells)	Viability Efficacy, RLM (p53RE-bla HCT-116 cells)	pEC50 [3, 14]	p53 activation EC50, HLM [4]	p53 activation EC50 [1]	Viability EC50 (p53RE-bla HCT-116 cells)	Viability efficacy (p53RE-bla HCT-116 cells)	p53 activation efficacy [2]	p53 activation EC50 [4]	p53 activation efficacy [1]	also measured
Oc1c(Cl)c(Cl)cc(Cl)c1Cl [2,3,5,6-Tetrachlorophenol]																	pEC50 [1, 8]: 4.53; pEC50 [1, 9]: 4.61; Emax [1, 10]: 31.3%; Emax [1, 11]: 36.3%; EC50, viability, cherry pick confirmation (p53RE-bla HCT-116 cells): inactive; EC50, viability, primary screening (p53RE-bla HCT-116 cells): inactive; Efficacy, viability, cherry pick confirmation (p53RE-bla HCT-116 cells): inactive; Efficacy, viability, primary screening (p53RE-bla HCT-116 cells): inactive; EC50, p53 activation, cherry pick confirmation [2]: inactive; EC50, p53 activation, primary screening [2]: inactive; Efficacy, p53 activation, cherry pick confirmation [2]: inactive; Efficacy, p53 activation, primary screening [2]: inactive; pEC50 [3, 12]: 4.68; Emax [3, 13]: 35.1%; EC50, p53 activation, cherry pick confirmation [4]: inactive; Efficacy, p53 activation, cherry pick confirmation [4]: inactive
COP(=O)(OC)OC(=CCl)c1cc(Cl)c(Cl)cc1Cl [Tetrachlorovinphos]	inactive	inactive	inactive	inactive	inactive	inactive	inactive	inactive	4.78	inactive							
C[C@]12CC[C@H]3[C@@H](CC[C@@]45O[C@@H]4C(O)=C(C#N)C[C@]35C)[C@@H]1CC[C@@H]2O [Trilostane]											inactive	inactive	inactive	inactive	inactive		pEC50 ([1]; Homo sapiens, HCT-116, read-out: p53 activation EC50): 4.36; Emax [1, 15]: 98.3%; p53 activation EC50 [2]: inactive; pEC50 [3, 16]: 4.39; Emax [3, 17]: 53.3%
Nc1ccc(-c2ccc(N)c(Cl)c2)cc1Cl [3,3'-Dichlorobenzidine]												inactive	inactive	inactive	inactive		pEC50 ([1]; read-out: p53 activation EC50): 4.79; p53 activation EC50 [2]: inactive; Emax [3, 17]: 33.9%
COP(=O)(OC)O/C(C)=C/C(=O)N(C)C [Dicrotophos]											inactive	inactive	inactive	47.1617	inactive	inactive	pEC50 [5]: 4.94; pEC50 [6]: 5.04; pEC50 [2]: 4.84; pEC50 [7]: 4.94; Emax [7]: 40.6%
CCOP(=S)(OCC)SC(CCl)N1C(=O)c2ccccc2C1=O (centres unmarked) [Dialifor]											inactive	inactive	inactive	52.0707	inactive	inactive	pEC50 [3, 16]: 5.52
O=c1ccc2ccccc2o1 [Coumarin]	inactive	inactive	inactive	inactive	inactive	inactive	inactive	inactive	4.54	inactive							p53 activation EC50, RLM [2]: inactive; p53 activation Efficacy, RLM [2]: inactive
COP(=S)(OC)Oc1cc(Cl)c(Br)cc1Cl [Bromofos]											inactive	inactive	inactive	62.741	inactive	inactive	pEC50 [5]: 4.79; Emax ([5]; HCT-116, read-out: efficacy): 40.6%; EC50 [6]: Inactive; pEC50 [2]: 4.82; pEC50 [7]: 4.75; Emax [7]: 66.6%
CNC(=O)Oc1ccc2c(c1)[C@]1(C)CCN(C)[C@@H]1N2C [Physostigmine]	inactive	inactive	inactive	inactive	inactive	inactive	inactive	inactive	5.15	inactive							p53 activation EC50, RLM [2]: inactive; p53 activation Efficacy, RLM [2]: inactive
COP(=S)(OC)Oc1ccc(S(N)(=O)=O)cc1 [Cythioate]	inactive	inactive	inactive	inactive	inactive	inactive	inactive	inactive	5.45	inactive							p53 activation EC50, RLM [2]: inactive; p53 activation Efficacy, RLM [2]: inactive
N=C(N)NC(=O)c1nc(Cl)c(N)nc1N [Amiloride hydrochloride]	inactive	inactive	inactive	inactive	inactive	inactive	inactive	inactive	4.41	inactive							p53 activation EC50, RLM [2]: inactive; p53 activation Efficacy, RLM [2]: inactive
Oc1c(Cl)c(Cl)c(Cl)c(Cl)c1Cl [Pentachlorophenol]																	pEC50 [1, 8]: 4.85; pEC50 [1, 9]: 4.87; Emax [1, 10]: 32.5%; Emax [1, 11]: 47.3%; EC50, viability, cherry pick confirmation (p53RE-bla HCT-116 cells): inactive; EC50, viability, primary screening (p53RE-bla HCT-116 cells): inactive; Efficacy, viability, cherry pick confirmation (p53RE-bla HCT-116 cells): inactive; Efficacy, viability, primary screening (p53RE-bla HCT-116 cells): inactive; EC50, p53 activation, cherry pick confirmation [2]: inactive; EC50, p53 activation, primary screening [2]: inactive; Efficacy, p53 activation, cherry pick confirmation [2]: inactive; Efficacy, p53 activation, primary screening [2]: inactive; pEC50 [3, 12]: 4.81; Emax [3, 13]: 30.9%; EC50, p53 activation, cherry pick confirmation [4]: inactive; Efficacy, p53 activation, cherry pick confirmation [4]: inactive
Nc1ccn([C@@H]2O[C@H](CO)[C@@H](O)[C@@H]2O)c(=O)n1 [Cytarabine hydrochloride]												inactive	inactive	inactive	inactive	74.252	p53 activation EC50 [2]: inactive; pEC50 [3, 16]: 5.46
COC(=O)N(OC)c1ccccc1COc1ccn(-c2ccc(Cl)cc2)n1 [Pyraclostrobin]												inactive	inactive	inactive	inactive	41.5523	Emax [1, 15]: 36.4%; pEC50 ([1]; read-out: p53 activation EC50): 5.58; p53 activation EC50 [2]: inactive; Emax [3, 17]: 36.3%
CCOP(=S)(OCC)SCSP(=S)(OCC)OCC [Ethion]											inactive	inactive	inactive	48.0253	inactive	inactive	pEC50 [5]: 5.23; pEC50 [6]: 5.48; pEC50 [2]: 5.69; pEC50 [7]: 5.21; Emax [7]: 53.8%
